In brackets after ≈: the same amount, converted by molar mass. Marks after values point to notes of the source that are not given here.
Assays:
[1] = tested on: Lactobacillus helveticus CH-1; assay: Plate diffusion bioassay of cell-free extracts / culture supernatants; assay type: cell-based
Description: 150 μl samples of cell free extracts from strains: 4, FI5876; 5, FI7990; 6, FI8070; 7, FI8198; 8, FI8199 were loaded into wells bored in MRS agar seeded with the indicator strains Lactobacillus helveticus CH-1. Plates were incubated overnight at 42° C. Standards included on the assay plate are: 1,50; 2,100; 3,200; 9,300; 10,400 U/ml.
(§1) Nisin activity in Lactococcal strains was assayed by both deferred and direct means. Plate diffusion bioassays were performed as previously described (Dodd et al (1992) Appl. Environ. Microbiol. 58, 3683-3693. Colonies growing on the surface of a GM17 plate were directly assayed by inverting over chloroform for 12 minutes and overlaying with agar seeded with the nisin sensitive L. lactis strain MG1614. Plates were incubated overnight and zone sizes around colonies compared with those of controls. Nisin immunity was determined by streaking cultures on a series of GM17 agar plates containing an increasing concentration of nisin and assessing the degree of growth at the different nisin levels. Control cultures (FI5876, positive) and MG1614 (negative) were included on each plate.
This corresponds to an increase of approximately 50% of nisin A levels, under the conditions used here (Table 1). This higher level of production was not found in the extracts of FI8199, producing the double mutant nisin A/Dha5A,Dha33A. […] In all cases the yield for a particular nisin variant was higher when using this gene replacement strategy than when the equivalent plasmid-encoded gene was employed in a plasmid complementation system (Table 3, Dodd et al (1992) (1993) supra).

[2] = tested on: sensitive L. Lactis strain MG1614; assay: Minimum inhibitory concentration (MIC); assay type: cell-based; details: Table 5
[3] = tested on: FI7847 [nisA-(fs)]; assay: Induction by nisin / nisin variants as inducing agent; assay type: cell-based, L. lactis; parameters: Induction: unit not given here; details: strain FI7847
Description: A particularly preferred embodiment of the third aspect of the invention is wherein the cells are cultured in the presence of nisA nisin or a variant nisin which can induce nisin expression. […] By adding sub-inhibitory concentrations of nisin to the growth medium, during fermentation, higher levels of the variant nisin are produced. Any variants that are less efficient as inducing agents benefit from the inclusion of nisin in the growth medium (ie a nisin induction step in the purification procedure). The amount of induction varies depending on the initial induction capacity of any particular variant (with I30W nisin A production more than doubled as a result of induction). Induction may be routinely included in the method as a means of maximising production levels. Any concerns about contamination with the wild type molecule are minimal as the nisin concentration required for induction is negligible compared to the amount of nisin variant being purified. Conveniently, the nisA nisin is a minimum amount that provides maximal induction of nisin production. This amount can be determined empirically by a person skilled in the art. Suitable nisA nisin concentrations for induction in this embodiment are from 1 nM to 500 nM, preferably 10 nM to 250 nM, more preferably 50 nM to 150 nM, most preferably 100 nM.
In some circumstances it is desirable to add nisA nisin as an inducer.

[4] = tested on: Lactobacillus helveticus CH-1; details: plate diffusion bioassay; plasmid-encoded nisA gene complementing nisA deficiency in host strain FI7332; cited from earlier work
[5] = tested on: nisin sensitive L. lactis strain MG1614; details: colony overlay assay; plasmid complementation; cited from earlier work
[6] = tested on: sensitive indicator strains; details: work described in WO 93/20213; cited from earlier work
[7] = tested on: FI5876; assay: Nisin immunity on GM17 agar plates with increasing nisin; assay type: cell-based, L. lactis
Description: as §1
(§2) The effect of disruption of the nisA gene on immunity of the host strain to nisin has been described previously (Dodd et al (1992) supra). […] The nisA deleted strain FI7990 was sensitive to nisin at a concentration of between 250 and 500 U/ml compared to the parent strain, FI5876, which will continue growing in the presence of nisin to over 1000 U/ml.

[8] = tested on: FI7847 [nisA-(fs)]; assay: as above; assay type: cell-based, L. lactis; details: nisin level tolerated by strain FI7847 nisA-(fs)
Description: as §1, §2

[9] = tested on: FI7990 (ΔnisA); assay: as above; assay type: cell-based, L. lactis; details: nisin level tolerated by strain FI7990 ΔnisA
Description: as §1, §2

[10] = tested on: FI7893 (nisA); assay: as above; assay type: cell-based, L. lactis; details: nisin level tolerated by strain FI7893 nisA
Description: as §1

[11] = tested on: FI8070 (nisA/S5A); assay: as above; assay type: cell-based, L. lactis; details: nisin level tolerated by strain FI8070 nisA/S5A
Description: as §1

[12] = tested on: FI8198 (nisA/S33A); assay: as above; assay type: cell-based, L. lactis; details: nisin level tolerated by strain FI8198 nisA/S33A
Description: as §1

[13] = tested on: FI8199 (nisA/S5A,S33A); assay: as above; assay type: cell-based, L. lactis; details: nisin level tolerated by strain FI8199 nisA/S5A
Description: as §1

[14] = tested on: MG1614; assay: as above; assay type: cell-based, L. lactis; details: nisin level tolerated by strain MG1614
Description: as §1

[15] = tested on: FI8003 (nisA); assay: as above; assay type: cell-based, L. lactis; details: nisin level tolerated by strain FI8003 nisA (BamHI site in promoter)
Description: as §1
A possible explanation for the difference in nisin sensitivity of these two Nis^− strains came from gene replacement studies involving the vector pFI740 (FIG. 2d). […] The only difference between the two sequences involved is that pFI740 has an additional BamHI site incorporated 80 bp upstream of the ATG start codon of nisA, and a BglII site immediately downstream of the coding region (FIG. 4). […] A single base pair change introduced as a result of engineering the BamHI site has the effect of converting the -35 sequence from CTGATT to CCGATT (FIG. 4).

C/C=C(\NC(=O)[C@@H](N)[C@@H](C)CC)C(=O)N[C@@H]1CSC[C@@H](C(=O)N[C@H]2C(=O)N3CCC[C@H]3C(=O)NCC(=O)N[C@H](C(=O)N[C@@H](CCCCN)C(=O)N[C@H]3C(=O)NCC(=O)N[C@@H](C)C(=O)N[C@@H](CC(C)C)C(=O)N[C@@H](CCSC)C(=O)NCC(=O)N[C@H](C(=O)N[C@@H](CC(N)=O)C(=O)N[C@@H](CCSC)C(=O)N[C@@H](CCCCN)C(=O)N[C@H]4C(=O)N[C@@H](C)C(=O)N[C@H]5C(=O)N[C@@H](CS[C@H]4C)C(=O)N[C@@H](Cc4c[nH]cn4)C(=O)N[C@H](C(=O)N[C@@H](CO)C(=O)N[C@H](C(=O)N[C@@H](Cc4c[nH]cn4)C(=O)N[C@H](C(=O)N[C@@H](C)C(=O)N[C@@H](CCCCN)C(=O)O)C(C)C)[C@@H](C)CC)CS[C@H]5C)CS[C@H]3C)CS[C@H]2C)NC(=O)[C@H](CC(C)C)NC(=O)[C@H](C)NC(=O)[C@H]([C@@H](C)CC)NC1=O [nisin A (Dha5A, Dha33A)]
Activity (% of wt) ([1]; antimicrobial activity in culture supernatants of gene-replaced strains, plate diffusion bioassays): 100 % of wt
zone of inhibition / inhibitory effect compared with parent strain FI5876 ([1]; cell extracts of gene-replaced strains, plate diffusion bioassay): equivalent that of nisin A containing the single mutation and also the wild type molecule
nisin activity (% of wild type), gene replacement ([1]; plate diffusion bioassay, functional nisA gene incorporated in the chromosome of FI7990 in place of nisA deletion): 100 % of wild type
MIC [2]: 1000 µg/mL (≈ 298 µM)
Induction ([3]; inducing agent at 100 ng ml^−1): 34
Induction ([3]; inducing agent at 1 mg ml^−1): 106
nisin activity (% of wild type), complementation [4]: <1^d % of wild type
antimicrobial activity, plasmid-encoded gene complementing nisA deficiency [5]: only detected in the more sensitive colony overlay assay
antimicrobial activity against sensitive indicator strains [6]: retained their antimicrobial activity

nisin
Immunity ([7]; nisin level tolerated by strain FI5876 (wild type)): >1 U/ml × 10^3
nisin concentration at which the strain continues growing ([7]; parent strain FI5876): over 1000 U/ml
Immunity [8]: 0.5-0.75 U/ml × 10^3
Immunity [9]: 0.25-0.5 U/ml × 10^3
Immunity [10]: >1 U/ml × 10^3
Immunity [11]: >1 U/ml × 10^3
Immunity [12]: >1 U/ml × 10^3
Immunity [13]: >1 U/ml × 10^3
Immunity [14]: 0.01 U/ml × 10^3
Immunity [15]: 0.25-0.5 U/ml × 10^3
